{"source": "paper PMC4604124", "about": "“In Vitro Characterization of the Pharmacological Properties of the Anti-Cancer Chelator, Bp4eT, and Its Phase I Metabolites” (PLoS ONE, 2015)", "key": {"[1]": {"system": "HCT116 human colorectal carcinoma cells", "assay": "MTT cytotoxicity assay, HCT116 cells", "format": "cell-based", "details": "for IC50: MTT", "protocol": "(§1) For cytotoxicity experiments, cancer cells were seeded at a density of 5,000 (MCF-7), 10,000 (HL-60) or 2,000 cells/well (HCT116 and A549) in 96-well plates (TPP) for 24 h/37°C prior to the addition of examined agents. The non-cancerous cells, 3T3 and H9c2 cells, were cultured for 24 h/37°C in 96-well plates at a density of 10,000 cells/well, the medium was then changed to serum- and pyruvate-free DMEM (Sigma-Aldrich) and incubated with the cells for another 24 h/37°C. The cytotoxic effects of Bp4eT and its metabolites were studied at different concentrations after a 72 h/37°C incubation. In order to aid the dissolution of the lipophilic ligands, 0.1% dimethyl sulfoxide (v/v) (DMSO; Sigma-Aldrich) was present in the culture medium of all groups. At this concentration, DMSO had no effect on cellular proliferation or viability.\n(§2) The viability of cells were determined using an MTT assay (Sigma-Aldrich) according to previously established methods. The optical density of soluble MTT was measured at λ = 570 nm, subtracting the λ = 690 nm background using a Tecan Infinite 200M plate reader (Tecan Group, Männedorf, Switzerland). The viability or proliferation of experimental groups was expressed as a percentage of the untreated controls (100%).\n(§3) SigmaStat for Windows 3.5 (Systat Software, San Jose, CA, USA) statistical software package was utilized to analyze results. The data are expressed as the mean ± SD of a given number of experiments. Statistical significance was determined using a one-way ANOVA with a Bonferroni post-hoc test or Student’s t-test. The results were considered to be statistically significant when p < 0.05. The IC50 values were calculated using CalcuSyn 2.0 software (Biosoft, Cambridge, UK). Cell cycle analysis was evaluated using MultiCycle AV Software (Phoenix Flow Systems, San Diego, CA, USA)."}, "caspase 9": {"system": "caspase 9", "assay": "Caspase activity, luminescent kit, caspase 9", "format": "cell-based, human", "details": "for Caspase 9 activity, % of the control: 100 nM, MCF-7, corrected for viability; for kaspáza 9, průměry (means of raw signal): mean of 4 experiments; for kaspáza 9, raw signal / kaspáza 9, signal / viabilita: individual experiments by date", "protocol": "To assess the effect of the compounds on caspase activity, MCF-7 cells were incubated with 100 nM Bp4eT or its metabolites for 3, 24 or 72 h/37°C in 96-well plates, as described above. The cells were then lysed by adding 100 μL of cold lysis buffer (100 mM HEPES, 10 mM CHAPS, 10 mM D-L-dithiothreitol, pH 7.4) to 100 μL of medium in each well. Lysates were immediately frozen at -80°C. Thawed lysates were used to assess caspase activity using luminescent kits for caspases 3/7, 8 and 9 (Promega, Madison, WI, USA). The luminescence was measured using the Tecan Infinite 200M plate reader. Caspase activity in the experimental groups was corrected according to the cellular viability of each group and expressed as a percentage of activity of the untreated control (100%)."}, "[2]": {"system": "MCF-7 human breast adenocarcinoma cells", "assay": "MTT cytotoxicity assay, MCF-7 cells", "format": "cell-based", "details": "for IC50: MTT", "protocol": "as §1, §2, §3"}}, "note": "Where “and” joins values, the source holds several entries; their conditions need not be identical. Equal entries are not always repeated. Where two headings read alike, the source gives them in different places."}
{"smiles": "CCNC(=S)NN=C(c1ccccc1)c1ccccn1", "note": "[Bp4eT, 2-benzoylpyridine 4-ethyl-3-thiosemicarbazone]", "values": [{"measurement": "MTT, relative to control (0 = 100)", "setting": "[1]; HCT116, 2 000 b/j, 10 nM, průměr (mean)", "result": 43.25}, {"measurement": "MTT, relative to control (0 = 100)", "setting": "[1]; HCT116, 2 000 b/j, 10 nM, single experiment (date)", "result": "46.7731 and 45.9842 and 47.2591 and 32.9751"}, {"measurement": "MTT, relative to control (0 = 100)", "setting": "[1]; HCT116, 2 000 b/j, 30 nM, průměr (mean)", "result": 5.63}, {"measurement": "MTT, relative to control (0 = 100)", "setting": "[1]; HCT116, 2 000 b/j, 100 nM, průměr (mean)", "result": 2.50}, {"measurement": "IC50", "setting": "[1]; HCT116, 2 000 b/j, single experiment (date)", "result": "7.8 nM and 8.77 nM and 5.93 nM"}, {"measurement": "IC50", "setting": "[1]; Homo sapiens, HCT-116, 72 h, HCT116, 72 h/37°C, mean ± SD, n ≥ 4", "result": "8 ± 1", "unit": "nM"}, {"measurement": "IC50", "setting": "[1]; Homo sapiens, HCT-116, HCT116, 2 000 b/j, průměr (mean)", "result": 7.6, "unit": "nM"}, {"measurement": "IC50", "setting": "[1]; Homo sapiens, HCT-116, HCT116, 2 000 b/j, single experiment (date)", "result": 7.89, "unit": "nM"}, {"measurement": "Caspase 9 activity, % of the control", "setting": "caspase 9; 24 h", "result": 125, "unit": "%"}, {"measurement": "Caspase 9 activity, % of the control", "setting": "caspase 9; 72 h", "result": 249, "unit": "%"}, {"measurement": "kaspáza 9, % kontroly", "setting": "caspase 9; 3 hodiny (3 h), % of control", "result": 104.85, "unit": "%"}, {"measurement": "kaspáza 9, průměry (means of raw signal)", "setting": "caspase 9; 3 hodiny (3 h)", "result": 3805.38}, {"measurement": "kaspáza 9, raw signal", "setting": "caspase 9; 3 hodiny", "result": "6578.5 and 2900.5 and 3521 and 2221.5"}, {"measurement": "kaspáza 9, raw signal, průměry", "setting": "caspase 9; 3 hodiny, mean", "result": 3805.38}, {"measurement": "kaspáza 9, % kontroly", "setting": "caspase 9; 3 hodiny, mean, normalised to viability", "result": 111.23, "unit": "% kontroly"}, {"measurement": "kaspáza 9, signal / viabilita", "setting": "caspase 9; 3 hodiny, normalised to viability", "result": "68.2861 and 30.1078 and 36.5487 and 23.0596"}, {"measurement": "kaspáza 9, signal / viabilita, průměry", "setting": "caspase 9; 3 hodiny, normalised to viability, mean", "result": 39.5005}, {"measurement": "kaspáza 9, % kontroly", "setting": "caspase 9; 24 hodin (24 h), % of control", "result": 66.84, "unit": "%"}, {"measurement": "kaspáza 9, průměry (means of raw signal)", "setting": "caspase 9; 24 hodin (24 h)", "result": 2704}, {"measurement": "kaspáza 9, raw signal", "setting": "caspase 9; 24 hodin", "result": "3466.5 and 1743.5 and 3244.5 and 2361.5"}, {"measurement": "kaspáza 9, raw signal, průměry", "setting": "caspase 9; 24 hodin, mean", "result": 2704}, {"measurement": "kaspáza 9, % kontroly", "setting": "caspase 9; 24 hodin, mean, normalised to viability", "result": 124.96, "unit": "% kontroly"}, {"measurement": "kaspáza 9, signal / viabilita", "setting": "caspase 9; 24 hodin, normalised to viability", "result": "65.5914 and 32.9897 and 61.3908 and 44.6831"}, {"measurement": "kaspáza 9, signal / viabilita, průměry", "setting": "caspase 9; 24 hodin, normalised to viability, mean", "result": 51.1638}, {"measurement": "kaspáza 9, % kontroly", "setting": "caspase 9; 72 hodin (72 h), % of control", "result": 66.22, "unit": "%"}, {"measurement": "kaspáza 9, průměry (means of raw signal)", "setting": "caspase 9; 72 hodin (72 h)", "result": 14621.1}, {"measurement": "kaspáza 9, raw signal", "setting": "caspase 9; 72 hodin", "result": "22930.5 and 14080 and 11064.5 and 10409.5"}, {"measurement": "kaspáza 9, raw signal, průměry", "setting": "caspase 9; 72 hodin, mean", "result": 14621.1}, {"measurement": "kaspáza 9, % kontroly", "setting": "caspase 9; 72 hodin, mean, normalised to viability", "result": 249.26, "unit": "% kontroly"}, {"measurement": "kaspáza 9, signal / viabilita", "setting": "caspase 9; 72 hodin, normalised to viability", "result": "846.456 and 519.749 and 408.435 and 384.256"}, {"measurement": "kaspáza 9, signal / viabilita, průměry", "setting": "caspase 9; 72 hodin, normalised to viability, mean", "result": 539.724}, {"measurement": "MCF-7 proliferation, % of the control", "setting": "[2]; 0.1 μM, 72 h", "result": 27, "unit": "%"}, {"measurement": "Therapeutic index, IC50 non-cancerous cells / IC50 neoplastic cells", "setting": "[2]; 3T3/MCF-7", "result": 87.3}, {"measurement": "Therapeutic index, IC50 non-cancerous cells / IC50 neoplastic cells", "setting": "[2]; H9c2/MCF-7", "result": 34.9}, {"measurement": "IC50", "setting": "[2]; Homo sapiens, MCF7, 72 h, MCF-7, 72 h/37°C, mean ± SD, n ≥ 4, read-out: IC50", "result": "15 ± 2", "unit": "nM"}, {"measurement": "IC50", "setting": "[2]; Homo sapiens, MCF7, MCF-7, 5 000 b/j, průměr (mean), read-out: IC50 měřené", "result": 14.6, "unit": "nM"}, {"measurement": "IC50", "setting": "[2]; Homo sapiens, MCF7, MCF-7, 5 000 b/j, single experiment (date), read-out: IC50 měřené", "result": 14.6, "unit": "nM"}, {"measurement": "MTT, relative to control (0 = 100)", "setting": "[2]; MCF-7, 5 000 b/j, 0.1 nM, průměr (mean)", "result": 96.38}, {"measurement": "MTT, relative to control (0 = 100)", "setting": "[2]; MCF-7, 5 000 b/j, 0.1 nM, single experiment (date)", "result": "88.7924 and 103.938 and 95.2002 and 101.937 and 92.0538"}, {"measurement": "MTT, relative to control (0 = 100)", "setting": "[2]; MCF-7, 5 000 b/j, 0.3 nM, průměr (mean)", "result": 88.87}, {"measurement": "MTT, relative to control (0 = 100)", "setting": "[2]; MCF-7, 5 000 b/j, 0.3 nM, single experiment (date)", "result": "99.7305 and 86.2923 and 86.9644 and 82.4877"}, {"measurement": "MTT, relative to control (0 = 100)", "setting": "[2]; MCF-7, 5 000 b/j, 1 nM, průměr (mean)", "result": 87.17}, {"measurement": "MTT, relative to control (0 = 100)", "setting": "[2]; MCF-7, 5 000 b/j, 1 nM, single experiment (date)", "result": "87.1761 and 96.2311 and 86.4816 and 83.9319 and 82.0349"}, {"measurement": "MTT, relative to control (0 = 100)", "setting": "[2]; MCF-7, 5 000 b/j, 3 nM, průměr (mean)", "result": 84.98}, {"measurement": "MTT, relative to control (0 = 100)", "setting": "[2]; MCF-7, 5 000 b/j, 3 nM, single experiment (date)", "result": "92.03 and 87.788 and 84.0816 and 76.0316"}, {"measurement": "MTT, relative to control (0 = 100)", "setting": "[2]; MCF-7, 5 000 b/j, 10 nM, průměr (mean)", "result": 59.89}, {"measurement": "MTT, relative to control (0 = 100)", "setting": "[2]; MCF-7, 5 000 b/j, 10 nM, single experiment (date)", "result": "58.817 and 55.8764 and 63.7331 and 67.2949 and 53.713"}, {"measurement": "MTT, relative to control (0 = 100)", "setting": "[2]; MCF-7, 5 000 b/j, 30 nM, průměr (mean)", "result": 30.78}, {"measurement": "MTT, relative to control (0 = 100)", "setting": "[2]; MCF-7, 5 000 b/j, 30 nM, single experiment (date)", "result": "29.4154 and 32.9782 and 31.8134 and 28.9002"}, {"measurement": "MTT, relative to control (0 = 100)", "setting": "[2]; MCF-7, 5 000 b/j, 100 nM, průměr (mean)", "result": 27.09}, {"measurement": "MTT, relative to control (0 = 100)", "setting": "[2]; MCF-7, 5 000 b/j, 100 nM, single experiment (date)", "result": "33.1607 and 22.627 and 26.6274 and 27.398 and 25.6334"}, {"measurement": "IC50", "setting": "[2]; MCF-7, 5 000 b/j, single experiment (date), read-out: IC50 měřené", "result": "16.3 nM and 16.2 nM and 11.2 nM"}]}
